Assay [1] has as its target T1, Androgen receptor (Homo sapiens, UniProt P10275).
T1 sequence (P10275 whole entry): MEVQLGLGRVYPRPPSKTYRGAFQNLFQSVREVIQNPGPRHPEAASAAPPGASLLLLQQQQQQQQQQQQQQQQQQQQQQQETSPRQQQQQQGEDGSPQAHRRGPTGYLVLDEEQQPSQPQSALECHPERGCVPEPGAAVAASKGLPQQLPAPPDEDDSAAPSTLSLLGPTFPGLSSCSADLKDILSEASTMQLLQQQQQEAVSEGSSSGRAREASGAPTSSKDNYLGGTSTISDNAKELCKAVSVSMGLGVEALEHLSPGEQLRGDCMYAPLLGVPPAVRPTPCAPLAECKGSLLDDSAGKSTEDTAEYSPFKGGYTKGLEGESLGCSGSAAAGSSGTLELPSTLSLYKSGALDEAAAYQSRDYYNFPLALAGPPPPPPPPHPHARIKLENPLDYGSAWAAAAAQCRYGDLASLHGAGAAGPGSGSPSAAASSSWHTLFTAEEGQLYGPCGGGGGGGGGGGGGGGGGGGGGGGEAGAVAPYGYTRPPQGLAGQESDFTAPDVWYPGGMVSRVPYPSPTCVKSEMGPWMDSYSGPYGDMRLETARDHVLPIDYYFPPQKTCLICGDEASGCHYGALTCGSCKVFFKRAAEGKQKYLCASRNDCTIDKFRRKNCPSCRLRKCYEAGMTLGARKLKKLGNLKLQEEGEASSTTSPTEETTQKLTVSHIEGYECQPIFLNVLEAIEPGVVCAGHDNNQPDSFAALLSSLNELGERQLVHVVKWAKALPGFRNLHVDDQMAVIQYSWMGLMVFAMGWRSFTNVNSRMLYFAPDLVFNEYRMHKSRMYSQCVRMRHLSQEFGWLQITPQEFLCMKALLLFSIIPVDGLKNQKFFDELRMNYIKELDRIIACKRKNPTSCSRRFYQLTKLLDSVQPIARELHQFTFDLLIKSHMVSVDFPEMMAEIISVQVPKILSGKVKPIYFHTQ
The experiment in a line: Binding affinity to androgen receptor (unknown origin).

Assay [2] has as its target T2, Cytochrome P450 1A2 (Homo sapiens, UniProt P05177).
T2 sequence (P05177 whole entry): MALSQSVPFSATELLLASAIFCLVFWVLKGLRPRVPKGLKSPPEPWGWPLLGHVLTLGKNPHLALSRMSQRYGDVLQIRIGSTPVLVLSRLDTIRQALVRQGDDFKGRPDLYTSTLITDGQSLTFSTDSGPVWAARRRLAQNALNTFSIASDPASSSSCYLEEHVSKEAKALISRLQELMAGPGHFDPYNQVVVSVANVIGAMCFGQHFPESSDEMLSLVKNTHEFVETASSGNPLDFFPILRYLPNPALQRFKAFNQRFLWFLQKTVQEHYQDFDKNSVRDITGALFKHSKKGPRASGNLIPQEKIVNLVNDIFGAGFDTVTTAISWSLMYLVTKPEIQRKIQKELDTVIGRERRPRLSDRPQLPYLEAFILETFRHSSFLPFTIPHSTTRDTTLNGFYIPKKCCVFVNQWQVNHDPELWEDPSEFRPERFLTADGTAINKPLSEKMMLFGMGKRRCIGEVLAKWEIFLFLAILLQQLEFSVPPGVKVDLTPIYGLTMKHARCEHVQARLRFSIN
The experiment in a line: Inhibition of CYP1A2 (unknown origin). In kind it is ADME.

The target of assay [3] is T3, Glucocorticoid receptor (Homo sapiens, UniProt P04150).
T3 sequence (P04150 whole entry): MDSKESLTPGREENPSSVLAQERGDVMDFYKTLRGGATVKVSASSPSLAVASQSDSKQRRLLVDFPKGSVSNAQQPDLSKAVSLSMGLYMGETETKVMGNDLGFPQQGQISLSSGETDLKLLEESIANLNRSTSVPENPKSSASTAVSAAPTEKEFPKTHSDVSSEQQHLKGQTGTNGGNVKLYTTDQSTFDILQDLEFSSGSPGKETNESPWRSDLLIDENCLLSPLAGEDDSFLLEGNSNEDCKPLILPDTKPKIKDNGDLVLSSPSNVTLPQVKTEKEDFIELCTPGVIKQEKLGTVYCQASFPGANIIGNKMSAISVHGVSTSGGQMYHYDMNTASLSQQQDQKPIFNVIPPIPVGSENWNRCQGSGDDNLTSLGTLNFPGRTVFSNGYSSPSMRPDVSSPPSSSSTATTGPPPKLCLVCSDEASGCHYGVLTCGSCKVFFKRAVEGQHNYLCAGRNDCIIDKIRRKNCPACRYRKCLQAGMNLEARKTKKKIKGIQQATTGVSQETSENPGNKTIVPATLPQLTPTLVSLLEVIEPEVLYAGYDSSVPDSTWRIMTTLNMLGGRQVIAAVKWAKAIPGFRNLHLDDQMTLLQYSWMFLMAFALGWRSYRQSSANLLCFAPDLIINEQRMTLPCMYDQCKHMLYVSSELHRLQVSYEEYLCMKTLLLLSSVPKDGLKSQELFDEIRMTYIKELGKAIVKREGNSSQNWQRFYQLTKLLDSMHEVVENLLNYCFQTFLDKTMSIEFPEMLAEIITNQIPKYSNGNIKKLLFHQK
Description: Agonist activity at glucocorticoid receptor in human PBMC assessed as inhibition of LPS-stimulated TNF-alpha release

Some results are limits rather than exact numbers.

The IC50 is the concentration needed to halve the response being measured. Regarding `Cc1nn(C2CCCC2)c(C)c1S(=O)(=O)N[C@@H](C)CNc1cccc2c1cnn2-c1ccc(F)nc1`, the results for the IC50 in assay [1], in assay [2] and in assay [3] were > 1 µM, > 20 µM and 0.014 µM, respectively.
